From the NIST ThermoML archive (doi:10.1016/j.jct.2016.10.023)
± gives the expanded uncertainty stated by the source.

Experiment: xn = mol fraction of the nth substance listed
Settings: Constant-volume piezometry

CCCCC [pentane] + CCCO
Settings | mass density [kg/m3]
483.15 K, 3273 kPa, Gas, x1 = 0.5 | 89.08 ± 0.28
483.15 K, 3361 kPa, Gas, x1 = 0.5 | 96.03 ± 0.32
483.15 K, 3529 kPa, Gas, x1 = 0.8 | 106.6 ± 0.35
483.15 K, 3605 kPa, Fluid (supercritical or subcritical phases), x1 = 0.9 | 123.58 ± 1.1
483.15 K, 3709 kPa, Fluid (supercritical or subcritical phases), x1 = 0.9 | 134.38 ± 0.85
483.15 K, 3900 kPa, Fluid (supercritical or subcritical phases), x1 = 0.9 | 164.27 ± 1
483.15 K, 3917 kPa, Fluid (supercritical or subcritical phases), x1 = 0.8 | 140.58 ± 1
483.15 K, 3927 kPa, Liquid, x1 = 0.5 | 373.66 ± 0.76
483.15 K, 3981 kPa, Fluid (supercritical or subcritical phases), x1 = 0.8 | 156.35 ± 1
483.15 K, 4002 kPa, Fluid (supercritical or subcritical phases), x1 = 0.9 | 189.82 ± 1.2
483.15 K, 4026 kPa, Liquid, x1 = 0.5 | 384.78 ± 0.79
483.15 K, 4033 kPa, Fluid (supercritical or subcritical phases), x1 = 0.8 | 170.11 ± 1.1
483.15 K, 4049 kPa, Fluid (supercritical or subcritical phases), x1 = 0.9 | 202.77 ± 1.2
483.15 K, 4053 kPa, Fluid (supercritical or subcritical phases), x1 = 0.8 | 176.37 ± 1.1
483.15 K, 4071 kPa, Fluid (supercritical or subcritical phases), x1 = 0.8 | 181.18 ± 1.1
483.15 K, 4106 kPa, Fluid (supercritical or subcritical phases), x1 = 0.8 | 193.54 ± 1.1
483.15 K, 4109 kPa, Fluid (supercritical or subcritical phases), x1 = 0.9 | 221.12 ± 1.3
483.15 K, 4156 kPa, Fluid (supercritical or subcritical phases), x1 = 0.9 | 233.52 ± 1.4
483.15 K, 4162 kPa, Fluid (supercritical or subcritical phases), x1 = 0.8 | 214.27 ± 1.2
483.15 K, 4171 kPa, Fluid (supercritical or subcritical phases), x1 = 0.9 | 236.99 ± 1.4
483.15 K, 4179 kPa, Fluid (supercritical or subcritical phases), x1 = 0.8 | 220.05 ± 1.3
483.15 K, 4189 kPa, Fluid (supercritical or subcritical phases), x1 = 0.9 | 241.4 ± 1.4
483.15 K, 4200 kPa, Fluid (supercritical or subcritical phases), x1 = 0.9 | 244.72 ± 1.4
483.15 K, 4211 kPa, Fluid (supercritical or subcritical phases), x1 = 0.8 | 235.17 ± 1.3
483.15 K, 4239 kPa, Fluid (supercritical or subcritical phases), x1 = 0.8 | 245.83 ± 1.3
483.15 K, 4277 kPa, Fluid (supercritical or subcritical phases), x1 = 0.8 | 259.08 ± 1.4
483.15 K, 4309 kPa, Fluid (supercritical or subcritical phases), x1 = 0.9 | 282.57 ± 1.5
483.15 K, 4317 kPa, Fluid (supercritical or subcritical phases), x1 = 0.8 | 273.08 ± 1.5
483.15 K, 4417 kPa, Fluid (supercritical or subcritical phases), x1 = 0.8 | 288.96 ± 1.5
483.15 K, 4435 kPa, Fluid (supercritical or subcritical phases), x1 = 0.9 | 302.29 ± 1.6
483.15 K, 4437 kPa, Liquid, x1 = 0.5 | 398.98 ± 0.82
483.15 K, 4493 kPa, Fluid (supercritical or subcritical phases), x1 = 0.8 | 299.8 ± 1.6
483.15 K, 4551 kPa, Fluid (supercritical or subcritical phases), x1 = 0.9 | 312.96 ± 1.6
483.15 K, 4646 kPa, Fluid (supercritical or subcritical phases), x1 = 0.8 | 316.01 ± 1.6
483.15 K, 4807 kPa, Liquid, x1 = 0.2 | 510.78 ± 1
483.15 K, 4877 kPa, Fluid (supercritical or subcritical phases), x1 = 0.9 | 334.72 ± 1.7
483.15 K, 4915 kPa, Fluid (supercritical or subcritical phases), x1 = 0.8 | 334.54 ± 1.7
483.15 K, 5017 kPa, Liquid, x1 = 0.5 | 418.13 ± 0.85
483.15 K, 5178 kPa, Fluid (supercritical or subcritical phases), x1 = 0.8 | 346.09 ± 1.7
483.15 K, 5428 kPa, Fluid (supercritical or subcritical phases), x1 = 0.9 | 354.86 ± 1.8
483.15 K, 5641 kPa, Fluid (supercritical or subcritical phases), x1 = 0.8 | 362.7 ± 1.8
483.15 K, 6347 kPa, Liquid, x1 = 0.5 | 441.94 ± 0.9
483.15 K, 7296 kPa, Liquid, x1 = 0.5 | 452.28 ± 0.92
483.15 K, 8060 kPa, Liquid, x1 = 0.5 | 459.37 ± 0.93
483.15 K, 8482 kPa, Fluid (supercritical or subcritical phases), x1 = 0.9 | 408.19 ± 2
483.15 K, 8984 kPa, Fluid (supercritical or subcritical phases), x1 = 0.8 | 419.13 ± 2.1
483.15 K, 9371 kPa, Liquid, x1 = 0.5 | 469.23 ± 0.95
483.15 K, 10899 kPa, Liquid, x1 = 0.2 | 548.38 ± 1.1
483.15 K, 16393 kPa, Fluid (supercritical or subcritical phases), x1 = 0.8 | 467.78 ± 2.4
483.15 K, 16725 kPa, Liquid, x1 = 0.5 | 507.77 ± 1
483.15 K, 19754 kPa, Liquid, x1 = 0.5 | 520.6 ± 1.1
483.15 K, 21392 kPa, Liquid, x1 = 0.2 | 582.82 ± 1.2
483.15 K, 24098 kPa, Fluid (supercritical or subcritical phases), x1 = 0.8 | 497.3 ± 2.5
483.15 K, 27685 kPa, Liquid, x1 = 0.2 | 596.46 ± 1.2
483.15 K, 28654 kPa, Liquid, x1 = 0.5 | 549.54 ± 1.1
483.15 K, 34153 kPa, Fluid (supercritical or subcritical phases), x1 = 0.8 | 521.9 ± 2.6
483.15 K, 37683 kPa, Liquid, x1 = 0.2 | 615.9 ± 1.3
484.15 K, 3395 kPa, Gas, x1 = 0.5 | 96.03 ± 0.31
485.15 K, 3427 kPa, Gas, x1 = 0.5 | 96.02 ± 0.32
486.15 K, 3456 kPa, Gas, x1 = 0.5 | 96.02 ± 0.33
487.15 K, 3750 kPa, Gas, x1 = 0.5 | 122.1 ± 0.41
487.15 K, 4130 kPa, Liquid, x1 = 0.5 | 345.19 ± 0.72
488.15 K, 3498 kPa, Gas, x1 = 0.5 | 96.01 ± 0.34
488.15 K, 3783 kPa, Gas, x1 = 0.5 | 122.1 ± 0.41
488.15 K, 4237 kPa, Liquid, x1 = 0.5 | 345.17 ± 0.72
489.15 K, 3815 kPa, Gas, x1 = 0.5 | 122.09 ± 0.42
489.15 K, 4203 kPa, Liquid, x1 = 0.5 | 325.83 ± 0.68
490.15 K, 3453 kPa, Liquid, x1 = 0.2 | 471.25 ± 0.96
491.15 K, 4012 kPa, Gas, x1 = 0.5 | 144.34 ± 0.49

mass density [kg/m3], Liquid
Settings | 486.15 K | 488.75 K | 489.55 K | 489.85 K | 491.65 K
x1 = 0.2 | – | – | – | 471.25 ± 2.8 | –
x1 = 0.5 | 345.21 ± 2.1 | 325.84 ± 2 | 320.54 ± 1.9 | – | 299.15 ± 1.8
